Assay results: US20250042884A1, “3-ARYLOXYL-3-FIVE-MEMBERED HETEROARYL PROPYLAMINE COMPOUND AND USE THEREOF” (Shanghai Leado Pharmatech Co. Ltd., priority 2018, published 2025)

Assays:
TRPA1 = TRPA1 (Mus musculus (Mouse), UniProt Q8BLA8); assay: Manual patch clamp test of TRPA1 inhibitory activity; format: cell-based; settings: FIG. 2
Description: The TRPA1 inhibitory activity of compound I-1 was evaluated by manual patch clamp test method.

C57BL/6 mice = assay: Mice formalin pain model (acute and inflammatory pain); format: in vivo; settings: for Licking claw time (s) in phase II (10-60 min): hydrochloride salt, blank vehicle 349.55 ± 43.09
Description: 150 C57BL/6 mice (male, 9-week aged) were randomly divided into 15 groups, (each group had 10 mice) for the analgesic activity test of 3 compounds in the mice formalin pain model respectively: the compound I-1 group (compound I-1 prepared in Example 2 whose hydrochloride salt was used in the experiment), the S-duloxetine group (its hydrochloride salt was used in the experiment) and the compound C1 group (the compound C1 prepared in Comparative Example 1, whose hydrochloride salt was used in the experiment). Before the start of experiments, the mice were allowed to adapt to the experimental environment for 72 h with free feeding and drinking water. The test drugs were administrated by intraperitoneal injection at a dosage as follows:
Compound I-1 group: blank vehicle (blank saline control), 0.1 mg/kg, 0.5 mg/kg, 1 mg/kg, 5 mg/kg and 10 mg/kg;
S-duloxetine group: blank vehicle (blank saline control), 1 mg/kg, 5 mg/kg, 10 mg/kg and 20 mg/kg;
Compound C1 group: blank vehicle (blank saline control), 0.1 mg/kg, 0.5 mg/kg, 1 mg/kg, 5 mg/kg and 10 mg/kg.
After administration, the mice were placed in a transparent, ventilated plexiglass cylinder for 1 h, and then 20 μl of 4% formalin solution was injected into the left hind plantar of mice of each group by microinjector, claw pain response in mice were real-time recorded by a mini-camera. The time length of licking left claw were used as an indicator of pain response, licking time in 0-10 min (phase I) and 10-60 min (phase II) were observed and recorded, and the statistical analysis was conducted. The half effective dose (ED50) of 3 compounds were calculated: ED50 referred to the dose of the drug which decreased licking time by half as compared with the blank control group. The smaller the ED50 value was, the lower the effective analgesic dose of the compound was and the better the analgesic effect was.

Sprague-Dawley rats = assay: Rat hot plate pain model (acute pain); format: in vivo; settings: 30 mg/kg intraperitoneal, hydrochloride salt
Description: Sprague-Dawley male, mature and unmated rats were placed at hot and cold plate (product model: PE34, US IITC) with constant 53±0.1° C. Mice with painful response such as licking claw, shaking claw or slightly jumping within 10-30 s were selected, and mice which evaded and jumped were abandoned. […] The test compound was freshly prepared on the day of administration. 0.9% NaCl physiological saline solution was prepared as solvent for later use. Appropriate amount of test compound was added into required volume of physiological saline and fully suspended, and the concentration of prepared drug was 1 mg/ml. […] After administration, the latency of heat pain was measured at 0.5 h, 1 h and 2 h after administration. In order to prevent animals from being scalded on the hot plate, the maximum incubation time was set to 30 s. Maximum possible effect (MPE) % was used to evaluate analgesic effect of each compound, i.e., MPE %=[(Post drug latency−baseline latency)/(30−baseline latency)]×100. MPE % at different time points was recorded.

ICR mice = assay: Mice acetic acid writhing pain model (visceral and inflammatory pain); format: in vivo; settings: for number of appearance of writhing reactions (visceral pain) within 30 min: 1 h before acetic acid, saline group 49 times
Description: Male ICR mice, 22-25 g, were fasted but allowed to drink water freely for 2 h before administration. All ICR mice were weighed and grouped randomly, each group had >10 animals. […] The drug was administrated by gavage based on the weight of mice. 1.5% acetic acid solution (0.1 ml/10 g) was injected intraperitoneally 1 h after administration, and the number of times of visceral pain in each group was observed within 30 min. When concave abdomen, stretched trunk and hind claw, and high buttocks appeared, one number point was recorded. Finally, the number of appearance of the above phenomenon was counted within 30 minutes.

SD rats = assay: Rat SNL model, mechanical allodynia test (nerve pain); format: in vivo; settings: 1 h after administration, 10 mg/kg oral, hydrochloride salt; control group 3.967 ± 0.775
Description: Male SPF grade SD rats, weighed 150 g-180 g, were selected. Aseptic operation during surgery was performed. The animals were anesthetized with sodium pentobarbital (50 mg/kg, intraperitoneal injection). The surgical area of animal waist was shaved and the skin was disinfected three times with iodophor and 70% ethanol. After the skin was dried, the operation was started. Surgical knife was used to make a longitudinal incision at the back of the sacrum of the animal waist to expose the left paraspinal muscles, and stretcher was used to separate muscle tissue to expose the spine. The left spinal nerves L5 and L6 were separated and ligated with a 6-0 silk thread, and the wound was sutured. After the operation, the animals were placed on electrothermal pad, and 5 mL of saline was injected subcutaneously to prevent dehydration. After the animals were fully awakened and could move around freely, the animals were put back in the cage.
After the operation, the animals were adapted in the experimental environment for 15min/day for 3 days.
The animals were weighed to calculate the dose. […] After administration, mechanical allodynia test was performed. The rat was individually placed in a plexiglass box with a grid on the bottom of the box to ensure that the rat claw could be tested. The rats were allowed to adapt the environment for 15 min before test. After the adaptation was completed, the test fiber was used to test the center of the left hind claw of the rat. The test fiber comprises 8 test strengths: 3.61 (0.4 g), 3.84 (0.6 g), 4.08 (1 g), 4.31 (2 g), 4.56 (4 g), 4.74 (6 g), 4.93 (8 g), and 5.18 (15 g). […] During the test, rapid withdrawal of animal claw was recorded as pain response. When the test fiber was removed from animal skin, the withdrawal of animal claw was also recorded as pain response. If animal moved, the pain response was not recorded, and the test was repeated. […]
Mechanical allodynia was expressed as withdrawal threshold (PWT) in rat behavioral test, which was calculated with the following formula: […]

Chain of TRPA1 (Q8BLA8 whole entry): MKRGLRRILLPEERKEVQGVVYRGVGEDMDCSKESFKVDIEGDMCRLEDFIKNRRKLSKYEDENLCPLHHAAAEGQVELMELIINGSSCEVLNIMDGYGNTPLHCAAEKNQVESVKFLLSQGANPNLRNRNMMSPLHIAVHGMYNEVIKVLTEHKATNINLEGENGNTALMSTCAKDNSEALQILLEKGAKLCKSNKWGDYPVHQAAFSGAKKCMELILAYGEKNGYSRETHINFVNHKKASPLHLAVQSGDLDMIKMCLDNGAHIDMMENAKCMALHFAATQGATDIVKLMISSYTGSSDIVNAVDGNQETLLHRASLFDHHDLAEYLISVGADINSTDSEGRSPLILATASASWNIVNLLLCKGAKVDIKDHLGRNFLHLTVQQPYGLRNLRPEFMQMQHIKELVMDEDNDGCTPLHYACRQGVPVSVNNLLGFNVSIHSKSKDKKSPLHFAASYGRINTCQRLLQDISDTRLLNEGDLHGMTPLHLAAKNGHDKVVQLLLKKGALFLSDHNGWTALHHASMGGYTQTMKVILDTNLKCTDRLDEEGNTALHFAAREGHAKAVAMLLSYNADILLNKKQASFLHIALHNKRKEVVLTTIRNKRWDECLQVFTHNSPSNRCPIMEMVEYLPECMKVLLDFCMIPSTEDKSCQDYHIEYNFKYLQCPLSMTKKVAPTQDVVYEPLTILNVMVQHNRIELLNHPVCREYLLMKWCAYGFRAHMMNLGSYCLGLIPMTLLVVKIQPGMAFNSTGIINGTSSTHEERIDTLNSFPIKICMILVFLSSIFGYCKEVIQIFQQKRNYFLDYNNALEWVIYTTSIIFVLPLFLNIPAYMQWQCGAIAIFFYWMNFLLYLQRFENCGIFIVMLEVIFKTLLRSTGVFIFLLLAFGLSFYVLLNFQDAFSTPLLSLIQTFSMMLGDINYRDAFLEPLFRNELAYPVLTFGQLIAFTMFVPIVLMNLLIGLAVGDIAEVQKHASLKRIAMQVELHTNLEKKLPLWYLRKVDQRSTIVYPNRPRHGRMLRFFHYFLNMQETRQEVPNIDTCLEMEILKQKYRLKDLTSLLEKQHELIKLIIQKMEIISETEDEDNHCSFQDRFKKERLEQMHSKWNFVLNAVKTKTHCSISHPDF

What does the source list for `CNCC[C@@H](Oc1cccc2ccoc12)c1cccs1` [Compound I-1, (R)-3-(benzofuran-7-yloxy)-N-methyl-3-(thiophen-2-yl)propyl-1-amine]?
IC50 (TRPA1): 420 nM; Licking claw time (s) in phase II (10-60 min) (C57BL/6 mice; 0.1 mg/kg intraperitoneal): 321.55 ± 47.75 s; decrease of licking time in phase II (10-60 min) compared with the blank vehicle (C57BL/6 mice; 0.5 mg/kg intraperitoneal): more than 50%; Licking claw time (s) in phase II (10-60 min) (C57BL/6 mice; 0.5 mg/kg intraperitoneal): 161.25 ± 30.83 s; Licking claw time (s) in phase II (10-60 min) (C57BL/6 mice; 1 mg/kg intraperitoneal): 131.28 ± 23.99 s; Licking claw time (s) in phase II (10-60 min) (C57BL/6 mice; 5 mg/kg intraperitoneal): 87.85 ± 25.15 s; Licking claw time (s) in phase II (10-60 min) (C57BL/6 mice; 10 mg/kg intraperitoneal): 99.08 ± 19.73 s; ED50 times stronger than S-duloxetine (C57BL/6 mice; phase II, mice formalin model): 30.8 times; ED50 times stronger than compound C1 (C57BL/6 mice; phase II, mice formalin model): 8.5 times; MPE % (Sprague-Dawley rats; 0.5 h after administration): 14.51 ± 6.87%; MPE % (Sprague-Dawley rats; 1 h after administration): 38.03 ± 5.66%; MPE % (Sprague-Dawley rats; 2 h after administration): 31.92 ± 6.79%; number of appearance of writhing reactions (visceral pain) within 30 min (ICR mice; 5 mg/kg by gavage): 19 times; number of visceral pain lower than the saline control group (ICR mice; 5 mg/kg by gavage, 19 times vs 49 times): 50%; number of appearance of writhing reactions (visceral pain) within 30 min (ICR mice; 10 mg/kg by gavage): 16 times; PWT(g), claw withdrawal threshold (SD rats): 7.869 ± 2.846 g
